Several values for one entry are separate records, joined by “and”; a condition that tells them apart may be missing. Equal values may be shown once. Inconclusive results and toxic doses are left out. No stated cut-off is given here; in the data, active means T/C of 150% or more; inactive means T/C below 125%.
Test system: L1210 leukemia ip in BDF1 mice, survival T/C
Assay: NCI In Vivo Anticancer Drug Screen. Data for tumor model L1210 Leukemia (intraperitoneal) in B6D2F1 (BDF1) mice
Conditions: endpoint: mean survival time, higher = longer survival
Summary of the method: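 Read-out is survival time, reported as the treated-group measurement over the vehicle-control measurement.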

[1] = dose: 100.0 mg/kg/injection, schedule: Q01DX001 (ip), vehicle: Klucel (hydroxypropylcellulose) (HPC)
[2] = dose: 100.0 mg/kg/injection, schedule: Q01DX001 (ip), vehicle: carboxymethylcellulose (CMC)
[3] = dose: 200.0 mg/kg/injection, schedule: Q01DX001 (ip), vehicle: carboxymethylcellulose (CMC)
[4] = dose: 400.0 mg/kg/injection, schedule: Q01DX001 (ip), vehicle: carboxymethylcellulose (CMC)
[5] = dose: 75.0 mg/kg/injection, schedule: Q01DX001 (ip), vehicle: saline
[6] = dose: 150.0 mg/kg/injection, schedule: Q01DX001 (ip), vehicle: saline
[7] = dose: 100.0 mg/kg/injection, schedule: Q01DX001 (ip), vehicle: saline
[8] = dose: 200.0 mg/kg/injection, schedule: Q01DX001 (ip), vehicle: saline
[9] = dose: 100.0 mg/kg/injection, schedule: Q01DX009 (ip), vehicle: saline with Tween-80
[10] = dose: 100.0 mg/kg/injection, schedule: Q04DX003 (ip), vehicle: saline with Tween-80
[11] = dose: 200.0 mg/kg/injection, schedule: Q01DX009 (ip), vehicle: saline with Tween-80
[12] = dose: 200.0 mg/kg/injection, schedule: Q04DX003 (ip), vehicle: saline with Tween-80
[13] = dose: 400.0 mg/kg/injection, schedule: Q04DX003 (ip), vehicle: saline with Tween-80

Measured: T/C

CN1CC(CO)C=C2c3cccc4[nH]cc(c34)CC21 (stereo not drawn)
inactive: dose: 25.0 mg/kg/injection, schedule: Q01DX009 (ip), vehicle: alcohol 100 % of control | dose: 25.0 mg/kg/injection, schedule: Q04DX003 (ip), vehicle: alcohol 98 % of control | dose: 50.0 mg/kg/injection, schedule: Q01DX009 (ip), vehicle: alcohol 118 % of control | dose: 50.0 mg/kg/injection, schedule: Q04DX003 (ip), vehicle: alcohol 103 % of control | dose: 100.0 mg/kg/injection, schedule: Q01DX009 (ip), vehicle: alcohol 123 % of control | dose: 100.0 mg/kg/injection, schedule: Q04DX003 (ip), vehicle: alcohol 101 % of control | dose: 200.0 mg/kg/injection, schedule: Q01DX009 (ip), vehicle: alcohol 107 % of control | dose: 200.0 mg/kg/injection, schedule: Q04DX003 (ip), vehicle: alcohol 98 % of control | dose: 400.0 mg/kg/injection, schedule: Q04DX003 (ip), vehicle: alcohol 109 % of control

N#C/C(=C\c1cccc([N+](=O)[O-])c1)c1ccccc1
inactive: [1] 97 % of control | dose: 200.0 mg/kg/injection, schedule: Q01DX001 (ip), vehicle: Klucel (hydroxypropylcellulose) (HPC) 101 % of control | dose: 400.0 mg/kg/injection, schedule: Q01DX001 (ip), vehicle: Klucel (hydroxypropylcellulose) (HPC) 94 % of control

C=CCC1(Cc2ccsc2)C(=O)NC(=O)NC1=O
inactive: [2] 90 % of control | [3] 92 % of control | [4] 100 % of control

CN(C)CCCN(CCCN(C)C)Cc1ccccc1
inactive: [5] 104 % of control | [6] 97 % of control

C=CC(C)C(C)CC (stereo not drawn)
inactive: dose: 50.0 mg/kg/injection, schedule: Q01DX001 (ip), vehicle: carboxymethylcellulose (CMC) 104 % of control | [2] 95 % of control | [3] 93 % of control | [4] 101 % of control

Nc1nc(N)c(C=Nc2ccc(Br)cc2)c(Nc2ccc(Br)cc2)n1
inactive: dose: 50.0 mg/kg/injection, schedule: Q01DX001 (ip), vehicle: alcohol 100 % of control

O=C(NCCCCCCNC(=O)Nc1ccc(C2=NCCCN2)cc1)Nc1ccc(C2=NCCCN2)cc1
inactive: dose: 6.25 mg/kg/injection, schedule: Q01DX Z (ip), vehicle: carboxymethylcellulose (CMC) 97 % of control | dose: 12.5 mg/kg/injection, schedule: Q01DX Z (ip), vehicle: carboxymethylcellulose (CMC) 97 % of control | dose: 25.0 mg/kg/injection, schedule: Q01DX Z (ip), vehicle: carboxymethylcellulose (CMC) 100 % of control

Cc1c(Cl)c(C)c(Cl)c(O)c1Cl (tested in a mixture with another compound)
inactive: dose: 25.0 mg/kg/injection, schedule: Q01DX009 (ip), vehicle: saline with Tween-80 97 % of control | dose: 50.0 mg/kg/injection, schedule: Q01DX009 (ip), vehicle: saline with Tween-80 93 % of control | dose: 100.0 mg/kg/injection, schedule: Q04DX002 (ip), vehicle: other 95 % of control | dose: 200.0 mg/kg/injection, schedule: Q04DX002 (ip), vehicle: other 90 % of control

Cc1c(C)n(C2OC(CO)C(O)C2O)c(=O)[nH]c1=O (stereo not drawn)
inactive: [7] 96 % of control | [8] 108 % of control | dose: 400.0 mg/kg/injection, schedule: Q01DX001 (ip), vehicle: saline 93 % of control

CCc1nc(N(C)CC(=O)O)nc(CC)c1-c1ccccc1O
inactive: dose: 50.0 mg/kg/injection, schedule: Q04DX002 (ip), vehicle: Klucel (hydroxypropylcellulose) (HPC) 111 % of control | dose: 100.0 mg/kg/injection, schedule: Q04DX002 (ip), vehicle: Klucel (hydroxypropylcellulose) (HPC) 101 % of control and 86 % of control | dose: 200.0 mg/kg/injection, schedule: Q04DX002 (ip), vehicle: Klucel (hydroxypropylcellulose) (HPC) 104 % of control | dose: 400.0 mg/kg/injection, schedule: Q04DX002 (ip), vehicle: Klucel (hydroxypropylcellulose) (HPC) 86 % of control

CC(C)(C1c2ccccc2C(=NO)c2ccccc21)[N+](=O)[O-] (stereo not drawn)
inactive: [9] 98 % of control | [10] 95 % of control | [11] 94 % of control | [12] 95 % of control | dose: 400.0 mg/kg/injection, schedule: Q01DX009 (ip), vehicle: saline with Tween-80 94 % of control | [13] 98 % of control

O=[N+]([O-])c1ccc(N/N=C/C23CC4CC(CC(C4)C2)C3)c([N+](=O)[O-])c1
inactive: dose: 3.12 mg/kg/injection, schedule: Q04DX002 (ip), vehicle: Klucel (hydroxypropylcellulose) (HPC) 121 % of control | dose: 6.25 mg/kg/injection, schedule: Q04DX002 (ip), vehicle: Klucel (hydroxypropylcellulose) (HPC) 110 % of control | dose: 12.5 mg/kg/injection, schedule: Q04DX002 (ip), vehicle: Klucel (hydroxypropylcellulose) (HPC) 113 % of control | dose: 25.0 mg/kg/injection, schedule: Q04DX002 (ip), vehicle: Klucel (hydroxypropylcellulose) (HPC) 94 % of control | [1] 98 % of control

CC(=O)OCc1cccnc1
inactive: [10] 95 % of control | [12] 94 % of control | [13] 97 % of control

Cc1noc(NS(=O)(=O)c2ccc(N=NC3SC(=S)NC3=O)cc2)c1C (stereo not drawn)
inactive: [5] 95 % of control | [6] 98 % of control | dose: 300.0 mg/kg/injection, schedule: Q01DX001 (ip), vehicle: saline 101 % of control

C=C(C)COc1c(C)c(C)c(OCC(C)C)c(C)c1C
inactive: dose: 50.0 mg/kg/injection, schedule: Q04DX003 (ip), vehicle: Klucel (hydroxypropylcellulose) (HPC) 96 % of control | dose: 100.0 mg/kg/injection, schedule: Q04DX003 (ip), vehicle: Klucel (hydroxypropylcellulose) (HPC) 93 % of control | dose: 200.0 mg/kg/injection, schedule: Q04DX003 (ip), vehicle: Klucel (hydroxypropylcellulose) (HPC) 93 % of control

CC(=O)Nc1ccc2c(c1)OCO2
inactive: [9] 101 % of control | [10] 107 % of control | [11] 102 % of control | [12] 108 % of control | [13] 103 % of control

C[N+](C)(C)N=C1CCCCC1
inactive: [7] 104 % of control | [8] 104 % of control

Cc1cc(=O)c2c(=O)[nH][nH]c2[nH]1
inactive: dose: 100.0 mg/kg/injection, schedule: Q04DX003 (ip), vehicle: saline 95 % of control | dose: 200.0 mg/kg/injection, schedule: Q04DX003 (ip), vehicle: saline 105 % of control | dose: 400.0 mg/kg/injection, schedule: Q04DX003 (ip), vehicle: saline 94 % of control

C(/C=C\c1ccccc1)=Nc1ccccc1
inactive: [10] 95 % of control | [12] 95 % of control | [13] 92 % of control

O=C(NCS(=O)(=O)O)OCc1ccccc1
inactive: dose: 100.0 mg/kg/injection, schedule: Q01DX001 (ip), vehicle: other 98 % of control | dose: 100.0 mg/kg/injection, schedule: Q04DX003 (ip), vehicle: other 96 % of control | dose: 200.0 mg/kg/injection, schedule: Q01DX001 (ip), vehicle: other 104 % of control | dose: 200.0 mg/kg/injection, schedule: Q04DX003 (ip), vehicle: other 102 % of control | dose: 400.0 mg/kg/injection, schedule: Q01DX001 (ip), vehicle: other 96 % of control | dose: 400.0 mg/kg/injection, schedule: Q04DX003 (ip), vehicle: other 96 % of control

CCCCOCCOCCOC(OCCOCCOCCCC)c1ccc2c(c1)OCO2
inactive: dose: 100.0 mg/kg/injection, schedule: Q04DX002 (ip), vehicle: saline 88 % of control | dose: 200.0 mg/kg/injection, schedule: Q04DX002 (ip), vehicle: saline 92 % of control | dose: 400.0 mg/kg/injection, schedule: Q04DX002 (ip), vehicle: saline 95 % of control
